Experimental data: US20150359798A1, “PIPERAZINYL DERIVATIVE REDUCES HIGH-FAT DIET-INDUCED ACCUMULATION OF FAT IN THE LIVERS, […]” (priority 2011, published 2015)

Legend:
[1] = test system: HSL; experiment: IHC staining of HSL in steatohepatitis liver; type: in vivo, mice; settings: after treatment or protection
Method: (§1) In the 14-week experiment, mice were fed a HFD from week 1 to week 14. During the 3 month experiments, KMUP-1 HCl (2.5 mg) was added to 200 ml tap water and) and drink for 14 weeks or for the last 6 weeks on mice or obese mice fed HFD, separately. 5 mice had free access to drinking water from week 1 to week 14 (protective group) or from week 8 to week 14 (treatment group). Tap water was used to normalize mineral nutrition (Scheme A).
(§2) For IHC of MMP-9/TNFα, HSL/p-HSL/ATGL and eNOS/IL-10, antigen retrieval of de-paraffinated sections was performed in Dako target retrieval solution, pH 9.0, in a vegetable steamer followed by the quenching of endogenous peroxidase activity with 3.0% H2O2 in methanol. Sections were then incubated with specific primary antibodies overnight at 4° C. in a humidified chamber. The antibodies used included rabbit polyclonal anti-eNOS (1:50 dilution) (Abcam, Cambridge, UK) or rabbit monoclonal anti-cleaved caspase-3 (1:50 dilution) (Cell Signaling, USA). The sections were then examined using a DAKO REAL EnVision™ Detection System kit (DAKO, Carpinteria, Calif.) and counterstained with hematoxylin. Images were obtained through a Nikon Eclipse TE200-S microscope.

[2] = test system: PKA; experiment: PKA expression and immunoreactivity in HepG2 cells; type: cell-based
[3] = test system: HMG CoA reductase; experiment: HMG CoA reductase expression in HepG2 cells (Western blotting); type: cell-based
Method: The HepG2 hepatoma cell line was purchased from the American Type Culture Collection (ATCC; Manassas, Va., U.S.A.). Cells were cultured in DMEM. The culture media was supplemented with 5% heat-Inactivated FBS, penicillin (100 U/mL) and streptomycin (100 μg/mL). Cells were grown in a humidified atmosphere containing 5% CO2 at 37° C., in which the oxygen tension in the incubator was held at 140 mmHg (20% O2, v/v; normoxic conditions).
(§3) HepG2 cells were treated with various concentrations of drugs for 24 hours. Reactions were terminated by washing twice with cold PBS, and the cells were then harvested, Proteins in the whole-cell lysate were homogenized in an ice-cold lysis buffer and a protease inhibitor (Sigma-Aldrich, St. Louis, Mo., U.S.A.). The homogenate was centrifuged at 90, 000 g for 15 minutes at 4° C., and supernatant was recovered as the total cellular protein. Cytosolic and membrane fractions of HepG2 cells were prepared using a. CNM (Cytosol Nuclear Membrane) compartment protein extraction kit (BioChain Institute Inc., Hayward, Calif., U.S.A.) according to the manufacturer's instructions. All of the fractionated protein solutions were stored at −80° C. until analysis. To measure the expression levels of proteins by drugs, the total cell protein was extracted after incubation with treatments for 24 hours and then Western blotting analysis was performed as described previously.

[4] = test system: RhoA; experiment: RhoA translocation from cytosol to membranes in HepG2 cells; type: cell-based
Method: as §3

[5] = test system: PKG; experiment: Hepatic PKG expression (14-week experiment); type: in vivo, mice; settings: drinking KMUP-1; protection and treatment groups
[6] = test system: p-HSL; experiment: IHC staining of p-HSL in steatohepatitis liver; type: in vivo, mice; settings: treatment and protection groups
Method: as §1, §2

[7] = test system: TNF-α; experiment: IHC staining of TNF-α in epididymal fat pads; type: in vivo, mice; settings: protection, 2.5 mg/kg/day
Method: as §2

[8] = test system: ROCK II; experiment: ROCK II expression in liver of HFD mice (8 weeks); type: in vivo; settings: animals treated with HFD
Method: (§4) In the 8 week experiment, C57BL/6J male mice (21-22 g), after fasting, were fed a HFD as a model of hyperlipidemia for 8 weeks. During the 2 month experiments, mice fasted for one night before the experiment was changed from a standard diet (STD) to a HFD and then the mice were randomly divided into 5 groups, including 2 control and 3 treatment groups. Six mice were used in each group. […] Liver from the protection group supplemented with KMUP-1 HCl (1 mg/kg/day) were used to determine the HMG CoA reductase expression.
(§5) For the expression of SR-B1, HMGR, PPARγ and ROCK isolated liver tissues were cut into small chips and placed into an extraction buffer (Tris 10 mM, pH 7.0, NaCl 140 mM, PMSF 2 mM, DTT 5 mM, NP-40 0.5%, pepstatin A 0.05 mM and leupeptin 0.2 mM) for hepatic protein extraction, and centrifuged at 20,000 g for 30 minutes. The obtained protein extract was boiled to a ratio of 4:1 with a sample buffer (Tris 100 mM, pH 6.8, glycerol 20%, SDS 4% and bromophenol blue 0.2%). Electrophoresis was performed using 10% SDS-polyacrylamide gel (1 hour, 100 V, 40 mA, 20 μg protein per lane).
(§6) Separated proteins, after 3 repeated centrifugations to discard up-layer tissue lipid inpurity, were transferred to PVDF membranes treated with 5% fat-free milk powder to block the nonspecific IgGs (90 minutes, 100 V) and incubated for 1 hour with specific protein antibody. […]

[9] = test system: PPARγ; experiment: PPARγ expression in liver of HFD mice (8 weeks); type: in vivo; settings: animals treated with HFD
Method: as §4, §5, §6

[10] = test system: eNOS; experiment: Table 3 eNOS (% of control); type: cell-based; settings: control group = 100 (%)
[11] = test system: PPARγ; experiment: PPARγ expression in HepG2 cells; type: cell-based
Method: as §3

[12] = test system: ROCK II; experiment: ROCK II expression in HepG2 cells; type: cell-based
Method: as §3, with “-80°” for “−80°”

[13] = test system: MMP-9; experiment: IHC staining of MMP-9 in steatohepatitis liver; type: in vivo, mice; settings: treatment and protection groups
Method: as §1, §2

## Cn1c(=O)c2c(ncn2CCN2CCN(c3ccccc3Cl)CC2)n(C)c1=O [KMUP-1, 7-[2-[4-(2-chlorophenyl)piperazinyl]ethyl]-1,3-dimethyl xanthine]
[1]
  HSL (IHC, liver): partly increased
[2]
  PKA immunoreactivity (green fluorescence): increased
[2]; 1, 10, 100 μM
  oxLDL (200 μg/mL)-induced reduction of PKA expression: reversed
[2]; 10, 20, 40 µM, in the presence of LDL (500 μg/mL)
  PKA protein expression: could not significantly affect
[3]; HepG2, 10^−5M
  mevalonate (100 μM)-inhibited HMG CoA reductase expression: prevented
[3]; HepG2, serum/vehicle-containing medium, 10^−9-10^−5M, 24 hours
  HMG CoA reductase expression: concentration-dependently increased
[4]
  translocation of RhoA from cytosol to membranes: concentration-dependently inhibited
[5]
  hepatic PKG expression: promote
[6]
  p-HSL (IHC, liver): activation
[7]
  IHC staining of TNF-α in epididymal fat pads: inhibited
[8]
  ROCK II in liver: inactivated
[9]
  PPARγ in liver: activated
[10]; 0.1 μM
  eNOS: 121.6 ± 16.5%
[10]; 1.0 μM
  eNOS: 132.7 ± 15.2%
[10]; 10 μM
  eNOS: 138.9 ± 15.2%
[11]; HepG2
  increase of PPARγ: 2-3 fold
[11]; HepG2, 10^−9-10^−5 M
  expression of PPARγ: increased
[11]; HepG2, KMUP-1 10^−9-10^−5 M with FPP or GGPP
  FPP- or GGPP-suppressed expression of PPARγ: reversed
[11]; HepG2, simvastatin, KMUP-1, Y27632 10^−5M, C3 exoenzyme
  PPARγ expression (FIG. 24C): increased
[12]; HepG2, 10^−9-10^−5 M
  ROCK II protein expression: concentration-dependently reduced
[12]; HepG2, combination with KMUP-1 10 μM
  Rp-8-pCPT-cGMPS-increased ROCK II expression: inhibited
[12]; HepG2, in the presence of exogenous GGPP and FPP, 10^−9-10^−5M
  GGPP- and FPP-increased RhoA/ROCK II expression: attenuated
[13]
  antibody response to MMP-9 (IHC, liver): shaded by the treatment and almost disappeared in the protection group
